Patent publication US20120258938A1, “Enzymatic Production or Chemical Synthesis and Uses for 5,7-Dienes and UVB Conversion Products Thereof” (priority 2008, published 2012)
Each block holds one molecule with its values, some of them ahead of it.

Legend:
[1] = test system: anti-CD3 stimulated DBA/1 Lac J spleen cells; test: Cytokine/chemokine production by anti-CD3 stimulated spleen cells (Luminex); assay type: cell-based, mouse; settings: spleen cells + anti-CD3 (4 μg/ml) + analogue 10^−7 M, 5 days, supernatant, one mouse
Method: Vitamin D analogues were solubilzed in absolute alcohol (EtOH) and added at 1:100 dilution to cultures of spleen cells from normal DBA/1 Lac J mice (Table 13). […] Therefore, changes are not due to decreased cell viability.
Spleen cells from three normal 8 wk old female DBA/1 Lac J mice were cultured in 96 well tissue culture plates in quadruplicate at 2×10^6 cells/ml in RPMI 1640 medium containing 9% FCS with and without anti-CD3 (4 μg/ml) and with anti-CD3+10^−7M natural vitamin D analogues for 5 days after which time supernatants were harvested and subjected to cytokine multiplex on a Luminex instrument using Milliplex Mouse Kit (values are pg/ml). The general trend in changes in cytokine levels were similar for each of the mice but some produced different levels of each cytokine for each culture additions. Data from one mouse are given and bold numbers indicate those that changed from anti-CD3 stimulated culture with vitamin D analogues added. There was no significant stimulation of IL-1 g, IL-2, IL-4, IL-5, IL-7, IL-9, IL-12 p70, IL-13, IL-15, MIP-2, RANTES or TNFα with the anti-CD3 MOAB.

Human dermal fibroblasts = test: TGF-b1 induced collagen protein production by dermal fibroblasts; assay type: cell-based; settings: collagenase sensitive protein, [3H]-proline
Method: Human dermal fibroblasts grown from explant skin cultures at less than 10 subpassages were plated at 5×10^4 cells per well in 24 well Costar tissue culture plates and were grown to confluency. Complete MEM was then changed to serum free Complete MEM without non-essential amino acids. After 24 hours, culture medium was changed (450 μl/well) to the same and secosteroids listed in Table 14 were added in 10 μl absolute alcohol (ETOH) to a final concentration of 10^−9 and M, 3 replicate wells each. Vehicle control wells (n=6) contained 10 μl (ETOH). After 2 hour pre-incubation, hr TGF-b1 (R and D systems) was added to each well except ETOH wells at a final concentration of 5 ng/ml. After 48 hours of culture, plate wells were paused with 1μ Cl ^3[H]-proline. After 24 hours, culture supernatants were harvested and collagenase sensitive protein was determined as previously described (44).

type I collagen = test: Type I collagen ELISA, TGF-b1 stimulated skin fibroblasts; assay type: cell-based; settings: human skin fibroblasts
Method: (§1) Additional studies using human skin fibroblasts were performed employing a type I collagen specific ELISA Chondrex, and real time RT PCR to quantitate type I collagen protein and Col1A1 mRNA expression in culture of human fibroblast stimulated by TGF-b1 in the presence and absence of 17,20S(OH)2pD3 and/or 20(OH)D3. These studies confirmed that Type I collagen protein production that was induced by TGF-b1 and that Col1A1 mRNA that was induced by TGF-b1 were suppressed by these analogues (FIGS. 44A-44B).

Col1A1 mRNA = test: Real time RT PCR Col1A1 mRNA, TGF-b1 stimulated skin fibroblasts; assay type: cell-based; settings: human skin fibroblasts
Method: as §1

HaCaT keratinocytes = test: [3H]-thymidine DNA synthesis in HaCaT keratinocytes; assay type: cell-based, human; settings: HaCaT, 24 hrs, dose dependent
Method: HaCaT keratinocytes were plated in 96-well plates at the density of 10,000 cells/well in DMEM (Cellgro, Herndon Va.) containing 5% charcoal treated fetal bovine serum (Hyclone, Logan, Utah), 1% antibiotic solution (PSA, Sigma, St. Louis, […].). Next day, media were changed and vehicle (ethanol) or secosteroids added. Cells were incubated with compounds for 48 hours. [^3H]-thymidine (Amersham Biosciences, Picataway, N.Y.) was added to the final concentration of 1 μCi/mL medium for last 12 hours of incubation. Media were then discarded, cells detached with trypsin and harvested on a glass fiber filter (Packard, Meriden, Calif.). Radioactivity was measured with a beta counter (Direct Beta-Counter Matrix 9600; Packard).
To measure DNA synthesis, keratinocytes, melanoma or prostate cancer cells were plated in 96-well plates. After overnight incubation tested compounds were added to the medium to achieve final concentrations 10^−7-10^−10 [M]. 100 μl of medium per well containing vitamin D3 compound was added to the cells. After 36 hours of incubation [3H]-thymidine (specific activity 88.0 Ci/mmol; Amersham Biosciences, Picataway, N.Y., USA) was added at 1 μCi/mL medium. After 12 hours, media were discarded, cells detached with trypsin and harvested on a glass fiber filter (Packard, Meriden, Calif., USA). 3H-radioactivity was measured with a beta counter (Direct Beta-Counter Matrix 9600; Packard).
HaCaT keratinocytes were plated out in 24-well plates, 50,000 cells/well. […] After 4 h media were discarded, cells washed with cold phosphate-buffered saline and incubated in 10% trichloroacetic acid for 30 min. Cells were washed again with phosphate-buffered saline, 100 μl 1.0 M NaOH was added to each well and plates incubated for 30 min at 30° C. The supernatant was collected and the ^3H-radioactivity measured by scintillation counting using a Direct Beta-Counter Matrix 9600 (Packard). The [^3H]-thymidine incorporation into DNA was measured separately for each well and the results entered into the calculation as the mean of 6 wells for each condition in a series of six experiments (n=36). Data were analyzed with GraphPad Prizm Version 4.0 (GraphPad Software Inc., San Diego, Calif., USA) using t tests. Differences were considered significant when p<0.05.

[2] = test system: AbC1 hamster melanoma cells; test: Soft agar colony formation, AbC1 melanoma; assay type: cell-based; settings: AbC1, 3 weeks
Method: Growth and survival of prostate cancer cells (PC3) and melanoma cells SKMEL 188 and AbC1 was determined by following their ability to form colonies in soft agar. Cells growing in monolayer culture were trypsinized and resuspended (1,000 cells/well) in 0.25 ml medium containing 0.4% agarose and 5% charcoal stripped serum (HyClone).
Cell suspensions were added to 0.8% agar layer in 24 well plates. Compounds were added from ethanol stocks (100 μM) to final concentrations of 0.1 nM or 10 nM, in 100 μL media. Each condition was tested in quadruplicate. An ethanol solvent control (amount of ethanol equivalent to test) as well as a media-only control was included in the assay. […] […] Colonies were then counted under the microscope and number of units was calculated as number of colonies formed divided by the number of cells seeded×100.

[3] = test system: SKMEL-188 human melanoma cells; test: MTT cell viability, SKMEL-188; assay type: cell-based; settings: SKMEL-188, 48 hrs, dose dependent
Method: MTT test were performed. Briefly, the cells were seeded in 96-well plate. Following 24, 48, 72 or 96 h incubation, MTT (5 mg/mL in PBS, Promega, Madison, Wis.) was added and the plates were incubated at 37° C. in 5% CO2 for 4 h. Subsequently, medium was discarded, acid isopropanol was added, plates were incubated for 30 min with continuous shaking and absorbance was measured at 570 nm with a plate reader (BIO-RAD Laboratories, Hercules, Calif.).

[4] = test system: K562 human chronic myeloid leukemia cells; test: Erythroid differentiation of K562 cells; assay type: cell-based; settings: 10^-7 M, 7 days
Method: (§2) K562 human chronic myeloid leukemia (erythroleukemia) and MEL mouse erytholeukemia cells were cultured in RPMI 1640 containing 10% FBS and treated with the drugs at concentrations 0.1 μM. A 0.1% ethanol (EtOH) or 2% DMSO were used as negative or positive control, respectively to estimate the vehicle effect and the ability of the cells to differentiate. Media were exchanged every 72 h and drugs added every day. Growth of cultures was estimated by counting number of viable cells (trypan blue negative cells) as described previously.
To estimate erythroid differentiation (production of hemoglobin), first the number of benzidine positive cells was evaluated after 2 and 7 days in culture. Cells were centrifuged and washed four times with PBS and resuspended in 1 mL of fresh PBS. For hemoglobin determination, a benzidine staining solution was freshly prepared by mixing one part of 30% hydrogen peroxide, one part of base stock solution of 3% benzidine in 90% acetic acid, and 5 parts of water. The solution was diluted 1:10 with the cell suspension and aliquoted in 4 wells in 24-well plate (250 μl each). After 10 min of incubation at RT benzidine-positive cells were counted under the microscope with a minimum of 200 cells scored.
Second, to define spectrophotometrically relative content of hemoglobin, equal number of cells (7×106) were washed with cold PBS and lysed for 20 min in 100 μL of lysis buffer (0.2% Triton X-100 in […] potassium phosphate buffer, pH 7.8). The lysates were centrifuged for 15 min at 1500 r.p.m. and 100 μL of the supernatant was incubated with 2 mL of benzidine solution (5 mg/mL in glacial acetic acid) and 2 ml 30% H2O2 for 10 min increases in comparison with the level of hemoglobin in mock-induced K562 or MEL cells.

[5] = test system: K562 human chronic myeloid leukemia cells; test: Viable cell count, K562 cells; assay type: cell-based; settings: 10^-7 M, 7 days
Method: as §2

[6] = test system: mouse erytholeukemia cells (Mel); test: Viable cell count, MEL cells; assay type: cell-based; settings: 10^-7 M, 7 days
Method: as §2

[7] = test system: HL-60 human promyelocytic leukemia cells; test: Monocytic differentiation (NBT), HL-60; assay type: cell-based; settings: HL-60, 0.1 μM
Method: (§3) HL-60 human promyelocytic and U937 promonocytic leukemia cells were treated with the drugs at 0.1 μM or vehicle (negative control or 12-O-tetradecanoylphorbol-13-acetate (TPA) (positive control). Media were changed every 72 h and test substances added fresh every day. Differentiation toward monocytes-like morphology and NBT-reduction has been assessed after 5 and 7 days. Cells (2×106) were washed with PBS four times and resuspended in 200 μL of NBT solution (4 mg/mL) in water. After the addition of 200 ul of TPA solution (2 ug/ml) in PBS cells were incubated at 37° C. for 60 min in 24-well plates. Cell differentiation was assessed by intracellular blue formazan deposits. The NBT positive and negative cells were scored under light microscopy examination (40×) with a minimum of 200 cells scored.
(§4) For spectrophotometric analysis the cells were washed twice with buffer containing cold bovine serum albumin solution (17 mg/mL BSA, 137 mmol/L, NaCl, 5 mmol/L, KCl, 0.8 mmol/L, MgSO4, […], HEPES, pH7.4) to remove unreacted NBT, and the insoluble formazan deposits in the resulting pellet were solubilized in 1 mL of a mixture containing 90% DMSO, 0.1% SDS and 0.01 mmol/L NaOH by vigorous vortexing. The samples were centrifuged 5 min at 1500 g to remove the cellular debris, and then the absorbance of supernatants was measured at 715 nm. Data are expressed as change in A715/106 cells.

[8] = test system: U937 promonocytic leukemia cells; test: Monocytic differentiation (NBT), U937; assay type: cell-based, human; settings: U937, 0.1 μM
Method: as §3, §4

bovine CYP11A1 = bovine CYP11A1 (Bos taurus, UniProt P00189); test: Metabolism by CYP11A1 (P450scc) in phospholipid vesicles; assay type: in vitro ADME; settings: first 2 min of incubation
Method: (§5) Adrenodoxin was added last to initiate the reaction.
(§6) Products and remaining substrate were extracted with dichloromethane, and measured by reverse phase HPLC as described before (12, 13b).

human CYP27B1 = human CYP27B1 (Homo sapiens, UniProt O15528); test: Metabolism by CYP27B1 in phospholipid vesicles; assay type: in vitro ADME; settings: up to 10 min
Method: as §5, §6

Sequence of bovine CYP11A1 (P00189 40-520): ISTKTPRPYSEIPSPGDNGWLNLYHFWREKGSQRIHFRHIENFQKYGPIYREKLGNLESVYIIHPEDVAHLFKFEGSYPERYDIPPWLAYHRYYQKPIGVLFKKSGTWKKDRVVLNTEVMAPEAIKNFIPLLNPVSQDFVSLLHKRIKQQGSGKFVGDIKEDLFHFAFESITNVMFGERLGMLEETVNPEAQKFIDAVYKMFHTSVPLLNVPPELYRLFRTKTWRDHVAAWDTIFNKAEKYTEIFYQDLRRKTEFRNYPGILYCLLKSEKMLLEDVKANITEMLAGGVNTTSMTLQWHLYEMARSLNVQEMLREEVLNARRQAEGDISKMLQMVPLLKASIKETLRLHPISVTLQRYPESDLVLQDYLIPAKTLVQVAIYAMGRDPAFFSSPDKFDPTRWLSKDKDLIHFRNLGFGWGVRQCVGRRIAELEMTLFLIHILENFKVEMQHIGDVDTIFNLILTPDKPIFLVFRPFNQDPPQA
Sequence of human CYP27B1 (O15528 whole entry): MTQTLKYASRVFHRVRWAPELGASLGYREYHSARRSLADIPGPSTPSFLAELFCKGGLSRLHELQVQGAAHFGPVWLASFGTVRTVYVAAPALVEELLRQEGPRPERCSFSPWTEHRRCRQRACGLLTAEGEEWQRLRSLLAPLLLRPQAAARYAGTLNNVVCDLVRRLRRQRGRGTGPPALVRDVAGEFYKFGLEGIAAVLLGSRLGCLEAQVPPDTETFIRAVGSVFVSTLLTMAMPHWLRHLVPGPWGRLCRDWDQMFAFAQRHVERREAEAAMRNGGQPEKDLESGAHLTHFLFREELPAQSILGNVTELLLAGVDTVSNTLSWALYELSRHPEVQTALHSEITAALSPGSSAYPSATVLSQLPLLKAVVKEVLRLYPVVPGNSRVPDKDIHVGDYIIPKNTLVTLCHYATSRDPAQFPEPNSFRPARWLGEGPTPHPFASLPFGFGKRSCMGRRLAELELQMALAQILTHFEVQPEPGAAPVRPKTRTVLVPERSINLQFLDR

SMILES: C=C1CC[C@H](O)C/C1=C/C=C1\CCC[C@@]2(C)[C@H]1CC[C@]2(O)[C@H](C)O [17,20S(OH)2pD3, (5Z,7E)-(20S)-9,10-secopregna-5,7,10(19)-triene-3β,17α,20-triol]
G-CSF [1]: 12 pg/mL
GM-CSF [1]: 41 pg/mL
IFNγ [1]: 0 pg/mL
IL-1α [1]: 4 pg/mL
IL-6 [1]: 13 pg/mL
IL-10 [1]: 16 pg/mL
IL-17 [1]: 111 pg/mL
IP-10 [1]: 6 pg/mL
KC [1]: 5 pg/mL
MCP-1 [1]: 102 pg/mL
TGF-b1 induced collagen protein production (Human dermal fibroblasts): inhibited TGF-b1 induced collagen protein production
TGF-b1 induced Type I collagen protein production (ELISA) (type I collagen): suppressed
TGF-b1 induced Col1A1 mRNA (Col1A1 mRNA): suppressed

SMILES: C=C1CC[C@H](O)C/C1=C/C=C1\CCC[C@]2(C)[C@@H](C(C)O)CC[C@@H]12 (stereo partly drawn) [20OH pD3, (5Z,7E)-9,10-secopregna-5,7,10(19)-triene-3β,20-diol]
proliferation (DNA synthesis) (HaCaT keratinocytes): inhibit proliferation
growth on soft agar (colonies greater than 0.2 and 0.5 mm) [2]: inhibit the growth on soft agar
proliferation (MTT test) [3]: inhibit proliferation
differentiation of K562 cells [4]: induce differentiation
proliferation of K562 cells [5]: inhibit proliferation
proliferation of mouse erytholeukemia cells (Mel) [6]: inhibit proliferation

SMILES: CC(O)[C@H]1CC[C@H]2C3=CC=C4C[C@@H](O)CC[C@@]4(C)[C@@H]3CC[C@]12C (stereo partly drawn) [20OH pL3, 3β,20-dihydroxy-9β,10α-pregna-5,7-diene]
proliferation (DNA synthesis) (HaCaT keratinocytes): inhibit proliferation
growth on soft agar (colonies greater than 0.2 and 0.5 mm) [2]: inhibit the growth on soft agar
proliferation (MTT test) [3]: inhibit proliferation
differentiation of K562 cells [4]: induce differentiation
proliferation of K562 cells [5]: inhibit proliferation
proliferation of mouse erytholeukemia cells (Mel) [6]: inhibit proliferation
monocytic differentiation (NBT staining) [7]: induce monocytic differention
monocytic differentiation (NBT staining) [8]: induce monocytic differention

substrate consumed (bovine CYP11A1): 13%
SMILES: C=C1CC[C@H](O)C/C1=C/C=C1\CCC[C@@]2(C)[C@H]1CC[C@@H]2[C@@](C)(O)CCCC(C)C [20S(OH)D3, (5Z,7E)-9,10-secocholesta-5,7,10(19)-triene-3β,20S-diol]
metabolism by CYP27B1 (human CYP27B1): metabolized to a single product at comparable initial rates
